From patent US20160030440A1, “ANTI-TUMORAL COMPOSITION COMPRISING A PI3KBETA-SELECTIVE INHIBITOR AND A PI3KALPHA-SELECTIVE INHIBITOR” (SANOFI, priority 2013, published 2016)

Tests used:
PC-3 cells = assay: In vitro anti-proliferative activity, CelltiterGlo, ray design; assay type: cell-based, human; conditions: PC-3, single agent, 96 hours; brackets: interval
Method: The human prostate cancer PC-3 cell line was purchased at ATCC (Ref number CRL-1435). The PC-3 cells were cultured in DMEM High Glucose medium supplemented with 10% FBS and 2 mM L-Glutamine.
They were diluted serially, in DMSO following a 3 or 3.3-fold dilution step: then each solution was diluted 50-fold in culture medium containing 10% serum before being added onto cells with a 20-fold dilution factor. The DMSO concentration was 0.1% in controls and in all treated wells.
(§1) A ray design method was used allowing the characterization of the interaction of the two compounds for several fixed proportion in the mixture. The ray design includes one ray for each single agent and 19 combination rays.
PC-3 cells were plated at 1,000 cells/well in 384-well plates in appropriate culture medium and incubated for 6 hours at 37° C., 5% CO2. […] Cell growth was evaluated by measuring intracellular ATP using CelltiterGlo® reagent (Promega) according to the manufacturer's protocol. Briefly, CellTiterGlo® was added to each plate, incubated for 1 hour then luminescent signal was read on the MicroBeta Luminescent plate reader. Three experiments have been performed on the cell line. […]
Growth inhibition percentage (GI %) was calculated according to the following equation: […]

HEC-116 cells = assay: as above; assay type: cell-based, human; conditions: HEC-116, single agent, 96 hours; brackets: interval
Method: The human endometrium adenocarcinoma cell line HEC-116 cell line was purchased at JCRB (Ref number JCRB1124 Batch 11072005). The HEC-116 cells were cultured in MEMa medium supplemented with 15% FBS and 2 mM L-Glutamine.
Compounds (I) and (II) dilutions were prepared according to the material and methods of example 1. The final concentrations tested were defined by ray design method described below. The DMSO concentration was 0.1% in controls and in all treated wells.
as §1
HEC-116 cells were plated at 3,000 cells/well in 384-well plates in appropriate culture medium and incubated for 6 hours at 37° C., 5% CO2. […] Cell growth was evaluated by measuring intracellular ATP using CelltiterGlo® reagent (Promega) according to the manufacturer's protocol. Briefly, CellTiterGlo® was added to each plate, incubated for 1 hour then luminescent signal was read on the MicroBeta Luminescent plate reader.
Three experiments have been performed on this cell line. For each experiment, two 384-well plates were used allowing working with two replicates for combination rays and with four replicates for single agent rays. […]

mTOR [1] = biological target: T1, mTOR (Homo sapiens, UniProt P42345); assay: mTOR inhibition; assay type: biochemical; conditions: up to 10 μM
PI3Kdelta = PI3Kdelta (Homo sapiens, UniProt O00329); conditions: PI3Kβ versus PI3Kdelta; cited from earlier work
PI3Kalpha = PI3Kalpha (Homo sapiens, UniProt P42336); conditions: PI3Kβ versus PI3Kalpha; cited from earlier work
PI3Kgamma = PI3Kgamma (Homo sapiens, UniProt P48736); conditions: PI3Kβ versus PI3Kgamma; cited from earlier work
mTOR [2] = biological target: T1, mTOR; conditions: PI3Kβ versus mTOR; cited from earlier work
294 other kinases = conditions: at 10 μM; cited from earlier work

PI3Kdelta, sequence (O00329 whole entry, species assumed): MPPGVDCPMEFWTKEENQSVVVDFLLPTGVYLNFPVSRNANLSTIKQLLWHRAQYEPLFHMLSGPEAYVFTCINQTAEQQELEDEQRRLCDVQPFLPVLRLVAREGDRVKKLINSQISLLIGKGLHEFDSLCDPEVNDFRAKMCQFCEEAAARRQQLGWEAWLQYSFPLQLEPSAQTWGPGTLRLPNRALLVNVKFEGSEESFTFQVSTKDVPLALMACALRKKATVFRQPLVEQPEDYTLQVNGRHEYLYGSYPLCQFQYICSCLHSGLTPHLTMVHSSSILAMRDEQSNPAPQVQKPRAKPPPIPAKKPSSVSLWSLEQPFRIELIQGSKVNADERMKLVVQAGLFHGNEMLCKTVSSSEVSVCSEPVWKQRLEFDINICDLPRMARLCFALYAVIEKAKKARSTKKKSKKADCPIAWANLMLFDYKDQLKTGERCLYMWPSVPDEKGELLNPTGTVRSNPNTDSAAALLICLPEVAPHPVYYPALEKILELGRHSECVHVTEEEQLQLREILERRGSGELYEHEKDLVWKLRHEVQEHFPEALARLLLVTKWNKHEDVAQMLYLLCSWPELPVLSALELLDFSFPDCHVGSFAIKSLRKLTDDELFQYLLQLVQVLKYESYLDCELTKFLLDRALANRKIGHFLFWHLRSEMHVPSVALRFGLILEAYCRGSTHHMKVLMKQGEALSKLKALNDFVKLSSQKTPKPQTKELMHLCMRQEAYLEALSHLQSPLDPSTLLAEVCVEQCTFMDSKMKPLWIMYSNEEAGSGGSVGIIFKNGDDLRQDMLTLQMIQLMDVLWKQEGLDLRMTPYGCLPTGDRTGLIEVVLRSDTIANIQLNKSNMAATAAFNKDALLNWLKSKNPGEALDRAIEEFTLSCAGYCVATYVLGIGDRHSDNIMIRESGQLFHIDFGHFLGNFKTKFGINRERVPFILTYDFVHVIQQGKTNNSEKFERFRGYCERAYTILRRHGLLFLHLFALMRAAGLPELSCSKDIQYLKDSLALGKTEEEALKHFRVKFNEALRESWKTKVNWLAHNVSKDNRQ
PI3Kdelta, sequence (P27986 whole entry partner, species assumed): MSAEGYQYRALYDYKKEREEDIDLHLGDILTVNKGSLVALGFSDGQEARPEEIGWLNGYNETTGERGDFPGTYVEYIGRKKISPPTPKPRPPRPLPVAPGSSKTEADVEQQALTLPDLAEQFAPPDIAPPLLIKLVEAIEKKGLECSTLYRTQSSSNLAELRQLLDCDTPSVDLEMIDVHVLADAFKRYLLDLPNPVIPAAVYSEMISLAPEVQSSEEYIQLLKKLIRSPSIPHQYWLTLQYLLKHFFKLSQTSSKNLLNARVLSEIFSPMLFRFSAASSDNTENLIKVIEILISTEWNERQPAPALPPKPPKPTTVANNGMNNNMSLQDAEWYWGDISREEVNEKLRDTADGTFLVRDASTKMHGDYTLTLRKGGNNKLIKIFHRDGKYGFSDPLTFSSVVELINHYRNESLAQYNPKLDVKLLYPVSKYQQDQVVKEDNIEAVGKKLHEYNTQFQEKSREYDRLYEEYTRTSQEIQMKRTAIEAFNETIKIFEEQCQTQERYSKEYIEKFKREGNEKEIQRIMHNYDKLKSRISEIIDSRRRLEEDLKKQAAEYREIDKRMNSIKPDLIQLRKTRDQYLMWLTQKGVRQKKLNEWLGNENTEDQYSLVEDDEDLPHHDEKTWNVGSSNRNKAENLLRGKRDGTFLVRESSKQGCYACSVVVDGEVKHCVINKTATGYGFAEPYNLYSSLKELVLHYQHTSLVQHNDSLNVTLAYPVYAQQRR
PI3Kalpha, sequence (P42336 whole entry, species assumed): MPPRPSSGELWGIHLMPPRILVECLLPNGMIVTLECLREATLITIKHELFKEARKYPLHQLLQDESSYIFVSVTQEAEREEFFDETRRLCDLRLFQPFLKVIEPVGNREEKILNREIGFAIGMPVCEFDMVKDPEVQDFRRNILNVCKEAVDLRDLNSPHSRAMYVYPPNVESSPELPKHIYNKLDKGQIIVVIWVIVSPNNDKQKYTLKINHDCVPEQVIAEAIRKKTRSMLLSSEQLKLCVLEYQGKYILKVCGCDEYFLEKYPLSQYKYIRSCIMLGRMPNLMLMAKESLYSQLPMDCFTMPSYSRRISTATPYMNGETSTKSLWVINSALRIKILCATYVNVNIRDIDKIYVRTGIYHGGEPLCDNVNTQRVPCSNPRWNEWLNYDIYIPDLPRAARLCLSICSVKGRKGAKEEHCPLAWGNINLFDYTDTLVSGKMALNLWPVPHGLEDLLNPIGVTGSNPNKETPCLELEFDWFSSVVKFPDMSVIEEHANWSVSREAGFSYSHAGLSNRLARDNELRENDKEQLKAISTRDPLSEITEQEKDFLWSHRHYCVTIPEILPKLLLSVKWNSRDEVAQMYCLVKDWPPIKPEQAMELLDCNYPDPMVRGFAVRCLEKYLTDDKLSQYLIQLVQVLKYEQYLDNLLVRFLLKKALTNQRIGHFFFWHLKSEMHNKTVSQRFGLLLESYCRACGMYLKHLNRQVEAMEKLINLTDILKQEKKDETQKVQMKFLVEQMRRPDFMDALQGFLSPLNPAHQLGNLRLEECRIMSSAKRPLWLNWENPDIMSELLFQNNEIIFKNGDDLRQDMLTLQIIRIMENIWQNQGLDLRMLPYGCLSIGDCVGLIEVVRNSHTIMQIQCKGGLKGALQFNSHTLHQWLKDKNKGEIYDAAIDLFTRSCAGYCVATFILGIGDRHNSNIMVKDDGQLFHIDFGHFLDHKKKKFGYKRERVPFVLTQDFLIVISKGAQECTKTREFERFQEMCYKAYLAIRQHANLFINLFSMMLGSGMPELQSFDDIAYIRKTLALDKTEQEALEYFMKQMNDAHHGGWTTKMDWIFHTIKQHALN
PI3Kalpha, sequence (P27986 whole entry partner, species assumed): as the sequence (P27986 whole entry partner, species assumed) above
PI3Kgamma, sequence (P48736 whole entry, species assumed): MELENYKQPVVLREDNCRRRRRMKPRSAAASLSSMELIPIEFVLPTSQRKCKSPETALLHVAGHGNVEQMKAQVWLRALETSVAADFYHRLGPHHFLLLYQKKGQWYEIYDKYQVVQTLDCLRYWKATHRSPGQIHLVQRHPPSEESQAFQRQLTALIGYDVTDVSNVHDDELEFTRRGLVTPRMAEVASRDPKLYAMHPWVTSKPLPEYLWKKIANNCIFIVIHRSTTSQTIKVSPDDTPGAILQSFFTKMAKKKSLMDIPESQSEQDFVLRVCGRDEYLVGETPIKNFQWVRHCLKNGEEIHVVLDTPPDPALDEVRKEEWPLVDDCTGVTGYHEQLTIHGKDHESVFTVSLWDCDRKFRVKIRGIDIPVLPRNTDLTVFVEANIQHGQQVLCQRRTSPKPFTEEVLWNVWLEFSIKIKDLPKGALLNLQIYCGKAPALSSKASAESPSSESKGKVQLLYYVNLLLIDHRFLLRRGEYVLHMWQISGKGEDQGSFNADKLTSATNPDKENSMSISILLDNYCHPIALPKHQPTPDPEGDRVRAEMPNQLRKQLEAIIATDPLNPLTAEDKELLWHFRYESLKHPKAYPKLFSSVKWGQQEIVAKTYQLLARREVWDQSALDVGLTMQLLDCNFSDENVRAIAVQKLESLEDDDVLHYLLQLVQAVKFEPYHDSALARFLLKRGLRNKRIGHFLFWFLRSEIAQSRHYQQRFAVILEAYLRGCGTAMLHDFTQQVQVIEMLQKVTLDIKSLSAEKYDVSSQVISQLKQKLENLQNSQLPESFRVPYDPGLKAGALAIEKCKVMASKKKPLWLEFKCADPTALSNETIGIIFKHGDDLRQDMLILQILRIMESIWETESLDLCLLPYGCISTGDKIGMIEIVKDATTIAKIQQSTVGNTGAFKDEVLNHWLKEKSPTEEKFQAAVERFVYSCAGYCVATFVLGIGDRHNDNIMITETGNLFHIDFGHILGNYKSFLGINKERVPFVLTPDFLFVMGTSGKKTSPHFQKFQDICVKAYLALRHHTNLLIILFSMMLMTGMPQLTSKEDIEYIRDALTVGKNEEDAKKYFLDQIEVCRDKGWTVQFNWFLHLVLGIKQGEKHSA

Compound | Absolute IC40 (growth inhibition 40%) (PC-3 cells) | Absolute IC40 (growth inhibition 40%) (HEC-116 cells) | inhibition of mTOR (mTOR [1]) | selectivity over PI3Kdelta (PI3Kdelta) [fold] | selectivity over PI3Kalpha (PI3Kalpha) [fold] | selectivity over PI3Kgamma (PI3Kgamma) [fold] | selectivity over mTOR (mTOR [2]) [fold] | inhibition of 294 other kinases (294 other kinases)
Cc1nc(NC(=O)N2CCC[C@H]2C(N)=O)sc1-c1ccnc(C(C)(C)C(F)(F)F)c1 [compound (II), (2S)-N1-[4-Methyl-5-[2-(2,2,2-trifluoro-1,1-dimethylethyl)-4-pyridinyl]-2-thiazolyl]-1,2-pyrrolidinedicarboxamide] | 14,700 nM | 8,630 nM | – | – | – | – | – | –
C[C@H]1Cc2ccccc2N1C(=O)Cc1nc(N2CCOCC2)cc(=O)[nH]1 [compound (I), 2-{2-[(2S)-2-methyl-2,3-dihydro-1H-indol-1-yl]-2-oxoethyl}-6-(morpholin-4-yl)pyrimidin-4(3H)-one] | 20,200 nM | 12,400 nM | not inhibit | – | – | – | – | –
Cc1c(Cn2c(C)nc3c(C(=O)O)cc(N4CCOCC4)cc32)cccc1C(F)(F)F [compound (III)] | – | – | – | 12 | > 1000 | > 1000 | > 1000 | less than 30%
